Like-named read-outs stand apart in the source and are kept apart here.
Experiments:
[1] = target: XIAP-BIR2 (Homo sapiens (Human), UniProt P98170); assay: BIR binding assay (FRET competition), XIAP BIR2; settings: read-out: XIAP BIR2 (pIC50) (converted)
Procedure, shortened: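 Competitive TR-FRET used His-tagged XIAP-BIR2 (200 nM) and 200 nM AlexaFluor647-labelled AVPIAQKSE SMAC peptide in HEPES buffer pH 7.4 with CHAPS, glycerol and DTT, incubated 60 min before 30 min with 2 nM Eu-W1024. The 615/665 nm ratio from a 15-point, 3-fold series was fit with a four-parameter model for IC50/pIC50.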

[2] = target: cIAP1-BIR2 (Homo sapiens (Human), UniProt Q13490); assay: BIR binding assay (FRET competition), cIAP1 BIR2
Procedure, shortened: (§1)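 Compounds tested as 15-point, 3-fold series displacing 200 nM AlexaFluor647-labelled SMAC peptide from His-tagged BIR domain (cIAP1-BIR3 50 nM; cIAP1-BIR2 and cIAP2-BIR2 325 nM; XIAP-BIR3 100 nM), pH 7.4, 60 min. Eu-W1024 (2 nM) added 30 min; emission ratio fitted for IC50.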

[3] = target: cIAP1-BIR3 (Homo sapiens (Human), UniProt Q13490); assay: BIR binding assay (FRET competition), cIAP1 BIR3; settings: for cIAP1 BIR3 vs BIR2 separation window: fold separation (FS) for cIAP1
Procedure, shortened: as §1

[4] = target: cIAP2-BIR3 (Homo sapiens (Human), UniProt Q13489); assay: BIR binding assay (FRET competition), cIAP2 BIR3; settings: for cIAP2 BIR3 vs BIR2 separation window: fold separation (FS) for cIAP2
[5] = target: cIAP2-BIR2 (Homo sapiens (Human), UniProt Q13489); assay: BIR binding assay (FRET competition), cIAP2 BIR2
Procedure, shortened: as §1

[6] = target: XIAP-BIR3 (Homo sapiens (Human), UniProt P98170); assay: BIR binding assay (FRET competition), XIAP BIR3; settings: for XIAP BIR3 vs BIR2 separation window: fold separation (FS) for XIAP
Procedure, shortened: as §1

[7] = test system: Jurkat HIV-luciferase clones; assay: Jurkat latency reversal assay; format: cell-based; settings: Homo sapiens, 48 h; Jurkat latency reversal assay potency; read-out: Jurkat pEC50 (converted)
Procedure, shortened: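 Pooled Jurkat clones C16, 115 and N6, each carrying one or two integrated HIV-luciferase proviruses and kept in 500 nM EFV, were exposed to 3-fold, 14-point compound titrations in duplicate (10 μM top, 0.5% DMSO) for 48 h at 37° C. Luciferase luminescence was fitted by four-parameter logistic regression for EC50 and maximal percent activation versus vehicle.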

Chain of cIAP2-BIR3 (Q13489 238-349): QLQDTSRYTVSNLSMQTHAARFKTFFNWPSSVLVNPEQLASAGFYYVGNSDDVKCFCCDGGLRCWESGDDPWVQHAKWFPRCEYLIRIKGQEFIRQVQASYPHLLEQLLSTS
Chain of cIAP2-BIR2 (Q13489 158-242): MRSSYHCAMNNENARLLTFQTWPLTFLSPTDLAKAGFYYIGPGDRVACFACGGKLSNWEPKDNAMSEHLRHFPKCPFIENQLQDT
Chain of XIAP-BIR2 (P98170 124-240): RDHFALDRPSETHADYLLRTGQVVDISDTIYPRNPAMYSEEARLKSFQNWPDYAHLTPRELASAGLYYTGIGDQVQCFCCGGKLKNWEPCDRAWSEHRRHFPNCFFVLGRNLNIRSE
Chain of cIAP1-BIR2 (Q13490 173-257): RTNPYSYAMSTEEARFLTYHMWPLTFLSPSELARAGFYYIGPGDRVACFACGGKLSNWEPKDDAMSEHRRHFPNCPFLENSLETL
Chain of cIAP1-BIR3 (Q13490 253-363): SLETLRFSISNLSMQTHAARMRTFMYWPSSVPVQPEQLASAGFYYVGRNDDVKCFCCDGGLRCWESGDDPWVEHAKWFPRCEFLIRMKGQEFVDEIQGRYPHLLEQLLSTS
Chain of XIAP-BIR3 (P98170 241-356): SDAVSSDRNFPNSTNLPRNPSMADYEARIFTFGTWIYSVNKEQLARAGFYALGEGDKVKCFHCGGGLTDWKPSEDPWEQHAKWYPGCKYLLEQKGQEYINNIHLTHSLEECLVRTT

Row | SMILES | IC50 ([1]; FRET competition binding) | IC50 [2] | IC50 [3] | cIAP1 BIR3 vs BIR2 separation window [3] | IC50 [4] | cIAP2 BIR3 vs BIR2 separation window [4] | IC50 [5] | IC50 [6] | XIAP BIR3 vs BIR2 separation window [6] | EC50 [7] | IC50 ([1]; FRET competition)
1 | C[C@@H]1CN(CC(=O)N2CC(C)(C)c3[nH]c(=O)c(Cc4ccc(F)cc4)cc32)[C@@H](CN2CCO[C@H](C(=O)NC3CCN(C(=O)[C@@H]4CN(C[C@H]5CN[C@H](C)CN5CC(=O)N5CC(C)(C)c6[nH]c(=O)c(Cc7ccc(F)cc7)cc65)CCO4)CC3)C2)CN1 [Example 129, (S)-4-(((2R,5R)-1-(2-(6-(4-fluorobenzyl)-3,3-dimethyl-5-oxo-2,3,4,5-tetrahydro-1H-pyrrolo[3,2-b]pyridin-1-yl)-2-oxoethyl)-5-methylpiperazin-2-yl)methyl)-N-(1-((S)-4-(((2R,5R)-1-(2-(6-(4-fluorobenzyl)-3,3-dimethyl-5-oxo-2,3,4,5-tetrahydro-1H-pyrrolo[3,2-b]pyridin-1-yl)-2-oxoethyl)-5-methylpiperazin-2-yl)methyl)morpholine-2-carbonyl)piperidin-4-yl)morpholine-2-carboxamide] | 10000 to 51300 nM | 22.4 to 1000 nM | 7.94 to 15.8 nM | ++ (1,000>FS>100) | 7.94 to 15.8 nM | +++ (10,000>FS>1,000) | 1000 to 3160 nM | 15.8 to 31.6 nM | ++++ (FS>10,000) | 0.49 to 12.6 nM | –
2 | C[C@@H]1CN(CC(=O)N2CC(C)(C)c3[nH]c(=O)c(Cc4ccc(F)cc4)cc32)[C@@H](CN2CCO[C@H](COc3ccccc3Oc3ccccc3OC[C@@H]3CN(C[C@H]4CN[C@H](C)CN4CC(=O)N4CC(C)(C)c5[nH]c(=O)c(Cc6ccc(F)cc6)cc54)CCO3)C2)CN1 [Example 68, 1,1′-(2,2′-((3R,3′R,6R,6′R)-(((2S,2'S)-(((oxybis(2,1-phenylene))bis(oxy))bis(methylene))bis(morpholine-2,4-diyl))bis(methylene))bis(3-methylpiperazine-6,1-diyl))bis(acetyl))bis(6-(4-fluorobenzyl)-3,3-dimethyl-1,2,3,4-tetrahydro-5H-pyrrolo[3,2-b]pyridin-5-one)] | 10000 to 51300 nM | 3160 to 10000 nM | 15.8 to 31.6 nM | +++ (10,000>FS>1,000) | 7.94 to 15.8 nM | +++ (10,000>FS>1,000) | 1000 to 3160 nM | 7.94 to 15.8 nM | +++ (10,000>FS>1,000) | 0.49 to 12.6 nM | –
3 | C[C@@H]1CN(CC(=O)N2CC(C)(C)c3[nH]c(=O)c(Cc4ccc(F)cc4)cc32)[C@@H](CN2CCO[C@H](COCc3c(F)c(F)c(COC[C@@H]4CN(C[C@H]5CN[C@H](C)CN5CC(=O)N5CC(C)(C)c6[nH]c(=O)c(Cc7ccc(F)cc7)cc65)CCO4)c(F)c3F)C2)CN1 [Example 85, 1,1′-(2,2′-((3R,3′R,6R,6′R)-(((2S,2'S)-((((perfluoro-1,4-phenylene)bis(methylene))bis(oxy))bis(methylene))bis(morpholine-2,4-diyl))bis(methylene))bis(3-methylpiperazine-6,1-diyl))bis(acetyl))bis(6-(4-fluorobenzyl)-3,3-dimethyl-1,2,3,4-tetrahydro-5H-pyrrolo[3,2-b]pyridin-5-one)] | 10000 to 51300 nM | 3160 to 10000 nM | 7.94 to 15.8 nM | +++ (10,000>FS>1,000) | 15.8 to 31.6 nM | +++ (10,000>FS>1,000) | 3160 to 10000 nM | 31.6 to 501 nM | ++++ (FS>10,000) | 0.49 to 12.6 nM | –
4 | C[C@@H]1CN(CC(=O)N2CC(C)(C)c3[nH]c(=O)c(Cc4ccc(F)cc4)cc32)[C@@H](CN2CCO[C@H](C(=O)NCCOCCOCCOCCNC(=O)[C@@H]3CN(C[C@H]4CN[C@H](C)CN4CC(=O)N4CC(C)(C)c5[nH]c(=O)c(Cc6ccc(F)cc6)cc54)CCO3)C2)CN1 [Example 121, (2S,2'S)-N,N′-(((oxybis(ethane-2,1-diyl))bis(oxy))bis(ethane-2,1-diyl))bis(4-(((2R,5R)-1-(2-(6-(4-fluorobenzyl)-3,3-dimethyl-5-oxo-2,3,4,5-tetrahydro-1H-pyrrolo[3,2-b]pyridin-1-yl)-2-oxoethyl)-5-methylpiperazin-2-yl)methyl)morpholine-2-carboxamide)] | 10000 to 51300 nM | 1000 to 3160 nM | 7.94 to 15.8 nM | +++ (10,000>FS>1,000) | 7.94 to 15.8 nM | +++ (10,000>FS>1,000) | 1000 to 3160 nM | 7.94 to 15.8 nM | ++++ (FS>10,000) | 63.1 to 316 nM | –
5 | Cc1c(OC[C@@H]2CN(C[C@H]3CN[C@H](C)CN3CC(=O)N3CC(C)(C)c4[nH]c(=O)c(Cc5ccc(F)cc5)cc43)CCO2)cccc1OC[C@@H]1CN(C[C@H]2CN[C@H](C)CN2CC(=O)N2CC(C)(C)c3[nH]c(=O)c(Cc4ccc(F)cc4)cc32)CCO1 [Example 79, 1,1′-(2,2′-((3R,3′R,6R,6′R)-(((2S,2'S)-(((2-methyl-1,3-phenylene)bis(oxy))bis(methylene))bis(morpholine-2,4-diyl))bis(methylene))bis(3-methylpiperazine-6,1-diyl))bis(acetyl))bis(6-(4-fluorobenzyl)-3,3-dimethyl-1,2,3,4-tetrahydro-5H-pyrrolo[3,2-b]pyridin-5-one)] | 10000 to 51300 nM | 1000 to 3160 nM | 1.38 to 7.94 nM | +++ (10,000>FS>1,000) | 1.38 to 7.94 nM | +++ (10,000>FS>1,000) | 3160 to 10000 nM | 7.94 to 15.8 nM | ++++ (FS>10,000) | 0.49 to 12.6 nM | –
6 | Cc1c(NC(=O)[C@@H]2CN(C[C@H]3CN[C@H](C)CN3CC(=O)N3CC(C)(C)c4[nH]c(=O)c(Cc5ccc(F)cc5)cc43)CCO2)cccc1NC(=O)[C@@H]1CN(C[C@H]2CN[C@H](C)CN2CC(=O)N2CC(C)(C)c3[nH]c(=O)c(Cc4ccc(F)cc4)cc32)CCO1 [Compound 141, (2S,2′S)-N,N′-(2-methyl-1,3-phenylene)bis(4-(((2R,5R)-1-(2-(6-(4-fluorobenzyl)-3,3-dimethyl-5-oxo-2,3,4,5-tetrahydro-1H-pyrrolo[3,2-b]pyridin-1-yl)-2-oxoethyl)-5-methylpiperazin-2-yl)methyl)morpholine-2-carboxamide)] | – | 1000 to 3160 nM | 7.94 to 15.8 nM | +++ (10,000>FS>1,000) | 7.94 to 15.8 nM | +++ (10,000>FS>1,000) | 1000 to 3160 nM | 15.8 to 31.6 nM | +++ (10,000>FS>1,000) | 12.6 to 63.1 nM | 10000 to 51300 nM
